25 compounds from US8759318B2, “Phosphoramidate derivatives of guanosine nucleoside compounds for treatment of viral infections” (Inhibitex, Inc., priority 2009, dated 2014) can be followed below.

Data set [1] deals with HCV replicon (Genotype 1b). The data set can be described thus: Luciferase genotype 1b replicon potency assay. Particulars: Hepatitis C virus, GETYPE1B, read-out: IC50 μM, HCV genotype 1b luciferase replicon, Renilla luciferase reporter. (A replicon is a self-replicating genome or part of one, used to study replication in cells.)
Data set [2] can be described thus: in vitro. The settings on record: human.

On to `COc1nc(N)nc2c1ncn2C1O[C@H](COP(=O)(N[C@H](C(=O)OC2CCCCC2)C(C)C)Oc2cccc3ccccc23)[C@@H](O)[C@@]1(C)O` (some centres unmarked) [Example 46], for which the IC50 – broadly, the concentration at which inhibition is half-maximal – in data set [1] worked out at 0.42 µM. For the same compound, the CC50 in data set [2] was 24 µM.

On to `COC(=O)[C@@H](C)c1ccc2cc(OP(=O)(N[C@H](C(=O)OCC(C)(C)C)C(C)C)OC[C@H]3OC(n4cnc5c(OC)nc(N)nc54)[C@](C)(O)[C@@H]3O)ccc2c1` (stereo partly drawn) [Example 48, (2S)-neopentyl 2-((((2R,3R,4R)-5-(2-amino-6-methoxy-9H-purin-9-yl)-3,4-dihydroxy-4-methyltetrahydrofuran-2-yl)methoxy) (6-((S)-1-methoxy-1-oxopropan-2-yl)naphthalen-2-yloxy)phosphorylamino)-3-methylbutanoate], for which, in data set [1], the IC50 stood at 0.21 µM. Also, the CC50 in data set [2] is 29 µM.

Turning to `COc1nc(N)nc2c1ncn2C1O[C@H](COP(=O)(N[C@H](C(=O)OCc2ccc(F)cc2F)C(C)C)Oc2cccc3ncccc23)[C@@H](O)[C@@]1(C)O` (stereo partly drawn) [Example 49, (2S)-2,4-difluorobenzyl 2-((((2R,3R,4R)-5-(2-amino-6-methoxy-9H-purin-9-yl)-3,4-dihydroxy-4-methyltetrahydrofuran-2-yl)methoxy)(quinolin-5-yloxy)phosphorylamino)-3-methylbutanoate], the IC50 in data set [1] came to 0.17 µM. In data set [2], this compound displayed a CC50 above 100 µM.

In the case of `COc1nc(N)nc2c1ncn2C1O[C@H](COP(=O)(N[C@H](C(=O)OCC(C)(C)C)C(C)C)Oc2cccc3ncccc23)[C@@H](O)[C@@]1(C)O` (stereo partly drawn) [Example 50, (2S)-neopentyl 2-((((2R,3R,4R)-5-(2-amino-6-methoxy-9H-purin-9-yl)-3,4-dihydroxy-4-methyltetrahydrofuran-2-yl)methoxy)(quinolin-5-yloxy)phosphorylamino)-3-methylbutanoate], the IC50 in data set [1] amounted to 0.55 µM. For the same compound, the CC50 in data set [2] is above 100 µM.

In the case of `COc1nc(N)nc2c1ncn2C1O[C@H](COP(=O)(N[C@H](C(=O)OCc2ccc(F)cc2F)C(C)C)Oc2ccc3ncccc3c2)[C@@H](O)[C@@]1(C)O` (stereo partly drawn) [Example 51, (2S)-2,4-difluorobenzyl 2-((((2R,3R,4R)-5-(2-amino-6-methoxy-9H-purin-9-yl)-3,4-dihydroxy-4-methyltetrahydrofuran-2-yl)methoxy)(quinolin-6-yloxy)phosphorylamino)-3-methylbutanoate], in data set [1], the IC50 was 0.11 µM. This compound also registered a CC50 in data set [2] above 100 µM.

Turning to `COc1nc(N)nc2c1ncn2C1O[C@H](COP(=O)(N[C@H](C(=O)OCC(C)(C)C)C(C)C)Oc2ccc3ncccc3c2)[C@@H](O)[C@@]1(C)O` (stereo partly drawn) [Example 52, (2S)-neopentyl 2-((((2R,3R,4R)-5-(2-amino-6-methoxy-9H-purin-9-yl)-3,4-dihydroxy-4-methyltetrahydrofuran-2-yl)methoxy)(quinolin-6-yloxy)phosphorylamino)-3-methylbutanoate], in data set [1], the IC50 came to 0.19 µM. In data set [2], this compound displayed a CC50 above 100 µM.

In the case of `COc1nc(N)nc2c1ncn2C1O[C@H](COP(=O)(N[C@H](C(=O)OCC(C)(C)C)C(C)C)Oc2cccc3cccnc23)[C@@H](O)[C@@]1(C)O` (stereo partly drawn) [Example 53, (2S)-neopentyl 2-((((2R,3R,4R)-5-(2-amino-6-methoxy-9H-purin-9-yl)-3,4-dihydroxy-4-methyltetrahydrofuran-2-yl)methoxy)(quinolin-8-yloxy)phosphorylamino)-3-methylbutanoate], the IC50 in data set [1] amounted to 0.88 µM. In addition, the CC50 in data set [2] is above 100 µM.

As to `COc1nc(N)nc2c1ncn2C1O[C@H](COP(=O)(N[C@H](C(=O)OCC(C)(C)C)C(C)C)Oc2cc(C(C)(C)C)cc3ccccc23)[C@@H](O)[C@@]1(C)O` (some centres unmarked) [Example 55], the IC50 in data set [1] turned out to be 2.1 µM. Besides, the CC50 in data set [2] came out at 13 µM.

Take `COc1nc(N)nc2c1ncn2C1O[C@H](COP(=O)(N[C@H](C(=O)OCC(C)(C)C)C(C)C)Oc2cc(C(C)(C)C)cc3ccc(C(C)(C)C)cc23)[C@@H](O)[C@@]1(C)O` (some centres unmarked) [Example 56]: the IC50 in data set [1] came out at 2.1 µM. For the same compound, the CC50 in data set [2] turned out to be 13 µM.

With `COc1nc(N)nc2c1ncn2C1O[C@H](COP(=O)(N[C@H](C)C(=O)OCC(C)(C)C)Oc2cccc3ccccc23)[C@@H](O)[C@@]1(C)O` (some centres unmarked) [Example 57], the IC50 in data set [1] turned out to be 0.24 µM. This compound returned a CC50 in data set [2] of 51 µM.

Turning to `COc1nc(N)nc2c1ncn2C1O[C@H](COP(=O)(N[C@@H](CCSC)C(=O)O[C@@H](C)c2ccccc2)Oc2cccc3ccccc23)[C@@H](O)[C@@]1(C)O` (stereo partly drawn) [Example 59, (2S)-((S)-1-phenylethyl) 2-((((2R,3R,4R)-5-(2-amino-6-methoxy-9H-purin-9-yl)-3,4-dihydroxy-4-methyltetrahydrofuran-2-yl)methoxy)(naphthalen-1-yloxy)phosphorylamino)-4-(methylthio)butanoate], in data set [1], the half-inhibitory concentration (IC50) stood at 0.32 µM. The CC50 in data set [2] came out at 30 µM.

Regarding `COc1nc(N)nc2c1ncn2C1O[C@H](COP(=O)(N[C@@H](CCSC)C(=O)OCC(C)(C)C)Oc2cccc3ccccc23)[C@@H](O)[C@@]1(C)O` (some centres unmarked) [Example 60], the IC50 in data set [1] came to 0.06 µM. Further, in data set [2], the CC50 came out at 28 µM.

For the compound `COc1nc(N)nc2c1ncn2[C@@H]1O[C@H](COP(=O)(N[C@@H](CC(C)C)C(=O)OCC(C)(C)C)Oc2cccc3ccccc23)[C@@H](O)[C@@]1(C)O` (some centres unmarked) [Example 61], in data set [1], the IC50 was determined as 0.071 µM. Also, the CC50 in data set [2] was 14 µM.

As to `CCC(C)[C@H](NP(=O)(OC[C@H]1OC(n2cnc3c(OC)nc(N)nc32)[C@](C)(O)[C@@H]1O)Oc1cccc2ccccc12)C(=O)OCC(C)(C)C` (some centres unmarked) [Example 62], the IC50 in data set [1] turned out to be 0.86 µM. In addition, the CC50 in data set [2] was 18 µM.

Regarding `COc1nc(N)nc2c1ncn2C1O[C@H](COP(=O)(N[C@H](C(=O)OCc2ccccc2)c2ccccc2)Oc2cccc3ccccc23)[C@@H](O)[C@@]1(C)O` (some centres unmarked) [Example 63], the concentration for half-maximal inhibition (IC50) in data set [1] came out at 0.028 µM. Further, in data set [2], the CC50 came out at 50 µM.

With `COC(=O)[C@@H](NP(=O)(OC[C@H]1OC(n2cnc3c(OC)nc(N)nc32)[C@](C)(O)[C@@H]1O)Oc1cccc2ccccc12)c1ccccc1` (some centres unmarked) [Example 64], in data set [1], the IC50 amounted to 0.49 µM. Besides, in data set [2], the CC50 is above 100 µM.

`COc1nc(N)nc2c1ncn2C1O[C@H](COP(=O)(N[C@H](C(=O)OCC(C)(C)C)c2ccccc2)Oc2cccc3ccccc23)[C@@H](O)[C@@]1(C)O` (some centres unmarked) [Example 66]: the IC50 in data set [1] was 0.032 µM. The compound also showed a CC50 in data set [2] of 19 µM.

As for `COc1nc(N)nc2c1ncn2C1O[C@H](COP(=O)(N[C@H](C(=O)OC2CCCCC2)c2ccccc2)Oc2cccc3ccccc23)[C@@H](O)[C@@]1(C)O` (stereo partly drawn) [Example 67, (2S)-cyclohexyl 2-((((2R,3R,4R)-5-(2-amino-6-methoxy-9H-purin-9-yl)-3,4-dihydroxy-4-methyltetrahydrofuran-2-yl)methoxy)(naphthalen-1-yloxy)phosphorylamino)-2-phenylacetate], the IC50 in data set [1] was found to be 0.054 µM. Further, the CC50 in data set [2] stood at 22 µM.

As for `COc1nc(N)nc2c1ncn2C1O[C@H](COP(=O)(N[C@@H](C(=O)OCC(C)(C)C)c2ccccc2)Oc2cccc3ccccc23)[C@@H](O)[C@@]1(C)O` (stereo partly drawn) [Example 70, (2R)-neopentyl 2-((((2R,3R,4R)-5-(2-amino-6-methoxy-9H-purin-9-yl)-3,4-dihydroxy-4-methyltetrahydrofuran-2-yl)methoxy)(naphthalen-1-yloxy)phosphorylamino)-2-phenylacetate], the concentration for half-maximal inhibition (IC50) in data set [1] was determined as 0.077 µM. The CC50 in data set [2] came to 38 µM.

Consider `COc1nc(N)nc2c1ncn2C1O[C@H](COP(=O)(N[C@@H](C(=O)OC2CCCCC2)c2ccccc2)Oc2cccc3ccccc23)[C@@H](O)[C@@]1(C)O` (stereo partly drawn) [Example 71, (2R)-cyclohexyl 2-((((2R,3R,4R)-5-(2-amino-6-methoxy-9H-purin-9-yl)-3,4-dihydroxy-4-methyltetrahydrofuran-2-yl)methoxy)(naphthalen-1-yloxy)phosphorylamino)-2-phenylacetate], for which, in data set [1], the IC50 came out at 2.5 µM. For the same compound, in data set [2], the CC50 is 26 µM.

On to `CCOc1nc(N)nc2c1ncn2C1O[C@H](COP(=O)(N[C@@H](C)C(=O)OCc2ccccc2)Oc2cccc3ccccc23)[C@@H](O)[C@@]1(C)O` (stereo partly drawn) [Example 73, (2S)-benzyl 2-((((2R,3R,4R)-5-(2-amino-6-ethoxy-9H-purin-9-yl)-3,4-dihydroxy-4-methyltetrahydrofuran-2-yl)methoxy)(naphthalen-1-yloxy)phosphorylamino)propanoate], for which the IC50 in data set [1] is 0.037 µM. Moreover, the CC50 in data set [2] worked out at 11 µM.

Consider `CCOc1nc(N)nc2c1ncn2C1O[C@H](COP(=O)(N[C@@H](C)C(=O)OCc2ccc(F)cc2F)Oc2cccc3ccccc23)[C@@H](O)[C@@]1(C)O` (stereo partly drawn) [Example 74, (2S)-2,4-difluorobenzyl 2-((((2R,3R,4R)-5-(2-amino-6-ethoxy-9H-purin-9-yl)-3,4-dihydroxy-4-methyltetrahydrofuran-2-yl)methoxy)(naphthalen-1-yloxy)phosphorylamino)propanoate], for which the IC50 in data set [1] came to 0.034 µM. In data set [2], this compound registered a CC50 of 17 µM.

As for `CCOc1nc(N)nc2c1ncn2C1O[C@H](COP(=O)(N[C@@H](C)C(=O)O[C@@H](C)c2ccccc2)Oc2cccc3ccccc23)[C@@H](O)[C@@]1(C)O` (stereo partly drawn) [Example 75, (2S)-((S)-1-phenylethyl) 2-((((2R,3R,4R)-5-(2-amino-6-ethoxy-9H-purin-9-yl)-3,4-dihydroxy-4-methyltetrahydrofuran-2-yl)methoxy)(naphthalen-1-yloxy)phosphorylamino)propanoate], the IC50 in data set [1] turned out to be 0.063 µM. The compound also came in with a CC50 in data set [2] of 12 µM.

`CCOc1nc(N)nc2c1ncn2C1O[C@H](COP(=O)(N[C@@H](C)C(=O)OCC(C)(C)C)Oc2cccc3ccccc23)[C@@H](O)[C@@]1(C)O` (some centres unmarked) [Example 76]: in data set [1], the IC50 stood at 0.01 µM. This compound also displayed a CC50 in data set [2] of 10 µM.

Turning to `CCOc1nc(N)nc2c1ncn2C1O[C@H](COP(=O)(N[C@@H](C)C(=O)OC(C)C)Oc2cccc3ccccc23)[C@@H](O)[C@@]1(C)O` (stereo partly drawn) [Example 77, (2S)-isopropyl 2-((((2R,3R,4R)-5-(2-amino-6-ethoxy-9H-purin-9-yl)-3,4-dihydroxy-4-methyltetrahydrofuran-2-yl)methoxy)(naphthalen-1-yloxy)phosphorylamino)propanoate], the IC50 in data set [1] is 0.11 µM. The CC50 in data set [2] worked out at 40 µM.
